# Results published in patent publication EP3262942A1, “SELENODIARYLS FOR USE AS MICROBICIDE OR AS MEDICINE” (Evonik Degussa GmbH, priority 2016, dated 2018).
# Columns and labels:
# Candida albicans = assay: Growth test in microtiter plates, HA medium, 24 h, visual evaluation; type: cell-based; set-up: key: +: kein Wachstum im Vergleich zur Wachstumskontrolle; -: Wachstum wie Wachstumskontrolle
# Mucor miehei = assay: as above; type: cell-based; set-up: key to Aktivität gegenüber M. miehei: +: kein Wachstum im Vergleich zur Wachstumskontrolle; -: Wachstum wie Wachstumskontrolle
# Penicillium notatum = assay: as above; type: cell-based; set-up: key: +: kein Wachstum im Vergleich zur Wachstumskontrolle; -: Wachstum wie Wachstumskontrolle
# Paecilomyces variotii = assay: as above; type: cell-based; set-up: key: +: kein Wachstum im Vergleich zur Wachstumskontrolle; -: Wachstum wie Wachstumskontrolle
# M. grisea H2O = assay: microbe, parasite or virus in culture; type: cell-based, Magnaporthe grisea; conditions: for inhibition of growth at 5 µg/mL / inhibition of growth at 10 µg/mL / inhibition of growth at 25 µg/mL / inhibition of growth at 50 µg/mL: Pyricularia grisea, H2O, 24 h, read-out: Aktivität gegenüber M. grisea H2O
# Botrytis cinerea = assay: microbe, parasite or virus in culture; type: cell-based; conditions: for inhibition of growth at 5 µg/mL / inhibition of growth at 10 µg/mL / inhibition of growth at 25 µg/mL / inhibition of growth at 50 µg/mL: Botrytis cinerea, 24 h, read-out: Aktivität gegenüber B. cinerea
# P. infestans = assay: microbe, parasite or virus in culture; type: cell-based, Phytophthora infestans; conditions: for inhibition of growth at 5 µg/mL / inhibition of growth at 10 µg/mL / inhibition of growth at 25 µg/mL / inhibition of growth at 50 µg/mL: Phytophthora infestans, 24 h, read-out: Aktivität gegenüber P. infestans
# M. grisea CM = assay: microbe, parasite or virus in culture; type: cell-based, Magnaporthe grisea; conditions: for inhibition of growth at 5 µg/mL / inhibition of growth at 10 µg/mL / inhibition of growth at 25 µg/mL / inhibition of growth at 50 µg/mL: Pyricularia grisea, 24 h, read-out: Aktivität gegenüber M. grisea CM
# Lepidium sativum = assay: Crop plant growth test, seeds on filter discs, 4 days, visual evaluation; type: in vivo
# Method: (§1) Testsubstanzen und Kontrollen werden auf Filterrondellen in Mikrotiterplatten (48 well) vorgelegt und das verwendete Lösungsmittel (DMSO) über Lyophilisation entfernt. Anschließend werden ca. 12 Samen pro Vertiefung (Setaria italical Lepidium sativum) zugeben, mit 200 µl sterilem Leitungswasser pro Vertiefung versetzt, mit einem Deckel versehen und in einer feuchten Kammer für 4 Tage im Pflanzenbrutschrank inkubiert (16h-Licht-8h-Dunkel-Rhythmus). Die Auswertung des Tests erfolgt optisch (+: mind. 75 % Wachstumshemmung im Vergleich zur Kontrolle, -: weniger als 75 % Wachstumshemmung im Vergleich zur Kontrolle.
# Setaria italica = assay: as above; type: in vivo
# Method: as §1
Compound,Aktivität gegenüber C. albicans (Candida albicans; 10µg/mL),Aktivität gegenüber C. albicans (Candida albicans; 50µg/mL),Aktivität gegenüber M. miehei (Mucor miehei; 10µg/mL),Aktivität gegenüber M. miehei (Mucor miehei; 50µg/mL),Aktivität gegenüber P. notatum (Penicillium notatum; 10µg/mL),Aktivität gegenüber P. notatum (Penicillium notatum; 50µg/mL),Aktivität gegenüber P. variotii (Paecilomyces variotii; 10µg/mL),Aktivität gegenüber P. variotii (Paecilomyces variotii; 50µg/mL),inhibition of growth at 5 µg/mL (M. grisea H2O) [%],inhibition of growth at 10 µg/mL (M. grisea H2O) [%],inhibition of growth at 25 µg/mL (M. grisea H2O) [%],inhibition of growth at 50 µg/mL (M. grisea H2O) [%],inhibition of growth at 5 µg/mL (Botrytis cinerea; 5µg/mL) [%],inhibition of growth at 10 µg/mL (Botrytis cinerea; 10µg/mL) [%],Aktivität gegenüber Nutzpflanzen: L. sativum (Lepidium sativum; 10µg/R),Aktivität gegenüber Nutzpflanzen: L. sativum (Lepidium sativum; 20µg/R),Aktivität gegenüber Nutzpflanzen: L. sativum (Lepidium sativum; 50µg/R),Aktivität gegenüber Nutzpflanzen: S. italica (Setaria italica; 10µg/R),Aktivität gegenüber Nutzpflanzen: S. italica (Setaria italica; 20µg/R),Aktivität gegenüber Nutzpflanzen: S. italica (Setaria italica; 50µg/R),further results
"Cc1cc(Cl)cc([Se]c2cc(Cl)cc(C)c2O)c1O [Verbindung 22, Bis(3-chlor-6-hydroxy-5-methylphenyl)selen]",-,-,-,-,-,-,-,-,> 75,> 75,> 75,> 75,> 75,> 75,- (weniger als 75 % Wachstumshemmung im Vergleich zur Kontrolle),- (weniger als 75 % Wachstumshemmung im Vergleich zur Kontrolle),- (weniger als 75 % Wachstumshemmung im Vergleich zur Kontrolle),- (weniger als 75 % Wachstumshemmung im Vergleich zur Kontrolle),- (weniger als 75 % Wachstumshemmung im Vergleich zur Kontrolle),- (weniger als 75 % Wachstumshemmung im Vergleich zur Kontrolle),mikrobizide Wirksamkeit gegenüber B. cinerea (Botrytis cinerea): mikrobizide Wirksamkeit; inhibition of growth at 25 µg/mL (Botrytis cinerea; 25µg/mL): > 75%; inhibition of growth at 50 µg/mL (Botrytis cinerea; 50µg/mL): > 75%; inhibition of growth at 5 µg/mL (P. infestans): 0 to 25%; inhibition of growth at 10 µg/mL (P. infestans): > 75%; inhibition of growth at 25 µg/mL (P. infestans): > 75%; inhibition of growth at 50 µg/mL (P. infestans): > 75%; inhibition of growth at 5 µg/mL (M. grisea CM): > 75%; inhibition of growth at 10 µg/mL (M. grisea CM): > 75%; inhibition of growth at 25 µg/mL (M. grisea CM): > 75%; inhibition of growth at 50 µg/mL (M. grisea CM): > 75%
"COc1cc(C)c([Se]c2c(C)cc(OC)c(OC)c2OC)c(OC)c1OC [Verbindung 28, Bis(6-methyl-2,3,4-trimethoxyphenyl)selen]",-,-,-,-,-,-,-,-,,,,,,,- (weniger als 75 % Wachstumshemmung im Vergleich zur Kontrolle),- (weniger als 75 % Wachstumshemmung im Vergleich zur Kontrolle),- (weniger als 75 % Wachstumshemmung im Vergleich zur Kontrolle),- (weniger als 75 % Wachstumshemmung im Vergleich zur Kontrolle),- (weniger als 75 % Wachstumshemmung im Vergleich zur Kontrolle),+ (mind. 75 % Wachstumshemmung im Vergleich zur Kontrolle),Aktivität gegenüber M. grisea H2O (M. grisea H2O; 5µg/mL): +++ (mehr als 75 % der Sporen nicht gekeimt); Aktivität gegenüber M. grisea H2O (M. grisea H2O; 10µg/mL): +++ (mehr als 75 % der Sporen nicht gekeimt); Aktivität gegenüber M. grisea H2O (M. grisea H2O; 25µg/mL): +++ (mehr als 75 % der Sporen nicht gekeimt); Aktivität gegenüber M. grisea H2O (M. grisea H2O; 50µg/mL): +++ (mehr als 75 % der Sporen nicht gekeimt); Aktivität gegenüber B. cinerea (Botrytis cinerea; 5µg/mL): - (key: +++: mehr als 75 % der Sporen nicht gekeimt; ++: zwischen 50 und 75 % der Sporen nicht gekeimt; +: zwischen 25 und 50 % der Sporen nicht gekeimt; -: zwischen 0 und 25 % der Sporen nicht gekeimt); Aktivität gegenüber B. cinerea (Botrytis cinerea; 10µg/mL): - (key: +++: mehr als 75 % der Sporen nicht gekeimt; ++: zwischen 50 und 75 % der Sporen nicht gekeimt; +: zwischen 25 und 50 % der Sporen nicht gekeimt; -: zwischen 0 und 25 % der Sporen nicht gekeimt); Aktivität gegenüber B. cinerea (Botrytis cinerea; 25µg/mL): - (key: +++: mehr als 75 % der Sporen nicht gekeimt; ++: zwischen 50 und 75 % der Sporen nicht gekeimt; +: zwischen 25 und 50 % der Sporen nicht gekeimt; -: zwischen 0 und 25 % der Sporen nicht gekeimt); Aktivität gegenüber B. cinerea (Botrytis cinerea; 50µg/mL): - (key: +++: mehr als 75 % der Sporen nicht gekeimt; ++: zwischen 50 und 75 % der Sporen nicht gekeimt; +: zwischen 25 und 50 % der Sporen nicht gekeimt; -: zwischen 0 und 25 % der Sporen nicht gekeimt); Aktivität gegenüber P. infestans (P. infestans; 5µg/mL): - (zwischen 0 und 25 % der Sporen nicht gekeimt); Aktivität gegenüber P. infestans (P. infestans; 10µg/mL): - (zwischen 0 und 25 % der Sporen nicht gekeimt); Aktivität gegenüber P. infestans (P. infestans; 25µg/mL): - (zwischen 0 und 25 % der Sporen nicht gekeimt); Aktivität gegenüber P. infestans (P. infestans; 50µg/mL): - (zwischen 0 und 25 % der Sporen nicht gekeimt); Wirksamkeit gegenüber P. infestans (P. infestans): keine Wirkung; Aktivität gegenüber M. grisea CM (M. grisea CM; 5µg/mL): +++ (mehr als 75 % der Sporen nicht gekeimt); Aktivität gegenüber M. grisea CM (M. grisea CM; 10µg/mL): +++ (mehr als 75 % der Sporen nicht gekeimt); Aktivität gegenüber M. grisea CM (M. grisea CM; 25µg/mL): +++ (mehr als 75 % der Sporen nicht gekeimt); Aktivität gegenüber M. grisea CM (M. grisea CM; 50µg/mL): +++ (mehr als 75 % der Sporen nicht gekeimt)
"Cc1cc(C)c(O)c([Se]c2c(C)c(C)cc(C)c2O)c1C [Verbindung 17, Bis(2-hydroxy-3,5,6-trimethylphenyl)selen]",-,-,-,-,-,-,-,-,0 to 25,0 to 25,0 to 25,0 to 25,0 to 25,0 to 25,- (weniger als 75 % Wachstumshemmung im Vergleich zur Kontrolle),- (weniger als 75 % Wachstumshemmung im Vergleich zur Kontrolle),- (weniger als 75 % Wachstumshemmung im Vergleich zur Kontrolle),- (weniger als 75 % Wachstumshemmung im Vergleich zur Kontrolle),- (weniger als 75 % Wachstumshemmung im Vergleich zur Kontrolle),+ (mind. 75 % Wachstumshemmung im Vergleich zur Kontrolle),inhibition of growth at 25 µg/mL (Botrytis cinerea; 25µg/mL): 0 to 25%; inhibition of growth at 50 µg/mL (Botrytis cinerea; 50µg/mL): 0 to 25%; inhibition of growth at 5 µg/mL (P. infestans): 0 to 25%; inhibition of growth at 10 µg/mL (P. infestans): 25 to 50%; inhibition of growth at 25 µg/mL (P. infestans): 25 to 50%; inhibition of growth at 50 µg/mL (P. infestans): 25 to 50%; inhibition of growth at 5 µg/mL (M. grisea CM): 0 to 25%; inhibition of growth at 10 µg/mL (M. grisea CM): 0 to 25%; inhibition of growth at 25 µg/mL (M. grisea CM): 50 to 75%; inhibition of growth at 50 µg/mL (M. grisea CM): 50 to 75%
"COc1cc(C)c([Se]c2cc(OC)c(OC)cc2C)cc1OC [Verbindung 27, Bis(3,4-dimethoxy-6-methylphenyl)selen]",-,-,-,-,-,-,-,-,,,,,,,- (weniger als 75 % Wachstumshemmung im Vergleich zur Kontrolle),- (weniger als 75 % Wachstumshemmung im Vergleich zur Kontrolle),- (weniger als 75 % Wachstumshemmung im Vergleich zur Kontrolle),+ (mind. 75 % Wachstumshemmung im Vergleich zur Kontrolle),- (weniger als 75 % Wachstumshemmung im Vergleich zur Kontrolle),+ (mind. 75 % Wachstumshemmung im Vergleich zur Kontrolle),Aktivität gegenüber M. grisea H2O (M. grisea H2O; 5µg/mL): - (zwischen 0 und 25 % der Sporen nicht gekeimt); Aktivität gegenüber M. grisea H2O (M. grisea H2O; 10µg/mL): - (zwischen 0 und 25 % der Sporen nicht gekeimt); Aktivität gegenüber M. grisea H2O (M. grisea H2O; 25µg/mL): - (zwischen 0 und 25 % der Sporen nicht gekeimt); Aktivität gegenüber M. grisea H2O (M. grisea H2O; 50µg/mL): + (zwischen 25 und 50 % der Sporen nicht gekeimt); Aktivität gegenüber B. cinerea (Botrytis cinerea; 5µg/mL): - (key: +++: mehr als 75 % der Sporen nicht gekeimt; ++: zwischen 50 und 75 % der Sporen nicht gekeimt; +: zwischen 25 und 50 % der Sporen nicht gekeimt; -: zwischen 0 und 25 % der Sporen nicht gekeimt); Aktivität gegenüber B. cinerea (Botrytis cinerea; 10µg/mL): - (key: +++: mehr als 75 % der Sporen nicht gekeimt; ++: zwischen 50 und 75 % der Sporen nicht gekeimt; +: zwischen 25 und 50 % der Sporen nicht gekeimt; -: zwischen 0 und 25 % der Sporen nicht gekeimt); Aktivität gegenüber B. cinerea (Botrytis cinerea; 25µg/mL): - (key: +++: mehr als 75 % der Sporen nicht gekeimt; ++: zwischen 50 und 75 % der Sporen nicht gekeimt; +: zwischen 25 und 50 % der Sporen nicht gekeimt; -: zwischen 0 und 25 % der Sporen nicht gekeimt); Aktivität gegenüber B. cinerea (Botrytis cinerea; 50µg/mL): - (key: +++: mehr als 75 % der Sporen nicht gekeimt; ++: zwischen 50 und 75 % der Sporen nicht gekeimt; +: zwischen 25 und 50 % der Sporen nicht gekeimt; -: zwischen 0 und 25 % der Sporen nicht gekeimt); Aktivität gegenüber P. infestans (P. infestans; 5µg/mL): - (zwischen 0 und 25 % der Sporen nicht gekeimt); Aktivität gegenüber P. infestans (P. infestans; 10µg/mL): - (zwischen 0 und 25 % der Sporen nicht gekeimt); Aktivität gegenüber P. infestans (P. infestans; 25µg/mL): - (zwischen 0 und 25 % der Sporen nicht gekeimt); Aktivität gegenüber P. infestans (P. infestans; 50µg/mL): - (zwischen 0 und 25 % der Sporen nicht gekeimt); Wirksamkeit gegenüber P. infestans (P. infestans): keine Wirkung; Aktivität gegenüber M. grisea CM (M. grisea CM; 5µg/mL): - (zwischen 0 und 25 % der Sporen nicht gekeimt); Aktivität gegenüber M. grisea CM (M. grisea CM; 10µg/mL): - (zwischen 0 und 25 % der Sporen nicht gekeimt); Aktivität gegenüber M. grisea CM (M. grisea CM; 25µg/mL): + (zwischen 25 und 50 % der Sporen nicht gekeimt); Aktivität gegenüber M. grisea CM (M. grisea CM; 50µg/mL): + (zwischen 25 und 50 % der Sporen nicht gekeimt)
